Reference: US9938276B2, “6,5-bicyclic octahydropyrrolopyridine orexin receptor antagonists” (Merck Sharp & Dohme Corp., priority 2014, dated 2018)

Key:
human orexin-2 receptor = human orexin-2 receptor (Homo sapiens (Human), UniProt O43614); assay: hOX2R FLIPR Ca2+ flux assay; format: cell-based; settings: CHO cells expressing the receptor; agonist 70 pM Ala-6,12 human orexin-A
Method: In a typical experiment the OX1 and OX2 receptor antagonistic activity of the compounds of the present invention was determined in accordance with the following experimental method. For intracellular calcium measurements, Chinese hamster ovary (CHO) cells expressing the rat orexin-1 receptor or the human orexin-2 receptor, are grown in Iscove's modified DMEM containing 2 mM L-glutamine, […], 1% hypoxanthine-thymidine supplement, 100 U/ml penicillin, 100 μg/ml streptomycin and 10% heat-inactivated fetal calf serum (FCS). The cells are seeded at 20,000 cells/well into Becton-Dickinson black 384-well clear bottom sterile plates coated with poly-D-lysine. All reagents were from GIBCO-Invitrogen Corp. The seeded plates are incubated overnight at 37° C. and 5% CO2. Ala-6,12 human orexin-A as the agonist is prepared as a 1 mM stock solution in 1% bovine serum albumin (BSA) and diluted in assay buffer (HBSS containing 20 mM HEPES, 0.1% BSA and 2.5 mM probenecid, pH7.4) for use in the assay at a final concentration of 70 pM. Test compounds are prepared as 10 mM stock solution in DMSO, then diluted in 384-well plates, first in DMSO, then assay buffer. On the day of the assay, cells are washed 3 times with 100 μl assay buffer and then incubated for 60 min (37° C., 5% CO2) in 60 μl assay buffer containing 1 μM Fluo-4AM ester, 0.02% pluronic acid, and 1% BSA. The dye loading solution is then aspirated and cells are washed 3 times with 100 μl assay buffer. 30 μl of that same buffer is left in each well. Within the Fluorescent Imaging Plate Reader (FLIPR, Molecular Devices), test compounds are added to the plate in a volume of 25 μl, incubated for 5 min and finally 25 μl of agonist is added. Fluorescence is measured for each well at 1 second intervals for 5 minutes and the height of each fluorescence peak is compared to the height of the fluorescence peak induced by 70 pM Ala-6,12 orexin-A with buffer in place of antagonist. […] Alternatively, compound potency can be assessed by a radioligand binding assay (described in Bergman et. al. Bioorg. Med. Chem. Lett. 2008, 18, 1425-1430) in which the inhibition constant (Ki) is determined in membranes prepared from CHO cells expressing either the OX1 or OX2 receptor. The intrinsic orexin receptor antagonist activity of a compound which may be used in the present invention may be determined by these assays.

hOX1R = hOX1R (Homo sapiens, UniProt O43613); assay: hOX1R FLIPR Ca2+ flux assay; format: cell-based; settings: CHO cells expressing the receptor; agonist 70 pM Ala-6,12 human orexin-A

Sequence of human orexin-2 receptor (O43614 whole entry): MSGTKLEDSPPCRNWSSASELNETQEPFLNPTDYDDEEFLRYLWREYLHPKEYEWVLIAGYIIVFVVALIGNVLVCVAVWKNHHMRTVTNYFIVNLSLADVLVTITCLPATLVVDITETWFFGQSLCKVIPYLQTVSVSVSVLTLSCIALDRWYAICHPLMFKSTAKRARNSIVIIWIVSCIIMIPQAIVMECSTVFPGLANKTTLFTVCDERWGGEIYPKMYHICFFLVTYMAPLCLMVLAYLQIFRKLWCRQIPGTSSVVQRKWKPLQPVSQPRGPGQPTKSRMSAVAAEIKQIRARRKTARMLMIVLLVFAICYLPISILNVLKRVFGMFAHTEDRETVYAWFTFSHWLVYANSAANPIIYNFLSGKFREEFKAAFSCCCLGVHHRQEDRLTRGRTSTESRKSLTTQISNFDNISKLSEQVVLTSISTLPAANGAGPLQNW

Structure (SMILES) | IC50 (human orexin-2 receptor) [µM] | IC50 (hOX1R) [µM]
N#Cc1ccnc(N2CC[C@@H]3CCN(C(=O)c4nccnc4N4CCCC4)C[C@@H]32)c1 [Example E17, 2-{(3aR, 7aR)-6-[(3-pyrrolidin-1-ylpyrazin-2-yl)carbonyl]octahydro-1H-pyrrolo[2,3-c]pyridin-1-yl}pyridine-4-carbonitrile] | 10 | 10
O=C(c1ccccc1-n1nccn1)N1CC[C@H]2CCN(c3nccn4nccc34)[C@H]2C1 [Example B13, (3aR, 7aR)-6-(2-(2H-1,2,3-triazol-2-yl)benzoyl)-1-(pyrazolo[1,5-a]pyrazin-4-yl)ocathydro-1H-pyrrolo[2,3-c]pyridin-1-ium] | 2.02 | 10
COc1ccnc(N2CC[C@@H]3CCN(C(=O)c4ccccc4-n4nccn4)C[C@@H]32)c1 [Example B3, (3aR, 7aR)-(2-(2H-1,2,3-triazol-2-yl)phenyl)(1-(4-methoxypyridin-2-yl)hexahydro-1H-pyrrolo[2,3-c]pyridin-6(2H)-yl)methanone] | 1.01 | ≥ 10
N#Cc1ccnc(N2CC[C@H]3CCN(C(=O)c4cccnc4-n4cccn4)C[C@H]32)c1 (stereo in doubt) [Example D5, 2-((3aS, 7aS)-6-(2-(1H-pyrazol-1-yl)nicotinoyl)octahydro-1H-pyrrolo[2,3-c]pyridin-1-yl)isonicotinonitrile] | 0.037 | 10
N#Cc1ccnc(N2CC[C@@H]3CCN(C(=O)c4ccccc4OCC(F)F)C[C@@H]32)c1 [Example E10, 2-[(3aR, 7aR)-6-{[2-(2,2-difluoroethoxy)phenyl]carbonyl}octahydro-1H-pyrrolo[2,3-c]pyridin-1-yl]pyridine-4-carbonitrile] | 0.139 | 10
O=C(c1ccccc1-n1nccn1)N1CC[C@H]2CCN(c3cncc4ccccc34)[C@H]2C1 [Example B23, 4-[(3aR, 7aR)-6-{[2-(2H-1,2,3-triazol-2-yl)phenyl]carbonyl}octahydro-1H-pyrrolo[2,3-c]pyridin-1-yl]isoquinoline] | 7.07 | 10
O=C(c1ccccc1-n1nccn1)N1CC[C@H]2CCN(c3ncccn3)[C@H]2C1 [Example A6] | 6.08 | 10
N#Cc1ccnc(N2CC[C@@H]3CCN(C(=O)c4ccccc4OC(F)F)C[C@@H]32)c1 [Example E21, 2-[(3aR, 7aR)-6-{[2-(difluoromethoxy)phenyl]carbonyl}octa-hydro-1H-pyrrolo[2,3-c]pyridin-1-yl]pyridine-4-carbonitrile] | 1.52 | 10
N#Cc1ccnc(N2CC[C@@H]3CCN(C(=O)c4ccccc4C4CC4(F)F)C[C@@H]32)c1 (stereo partly drawn) [Example E22, 2-[(3aR, 7aR)-6-{[2-(2,2-difluorocyclopropyl)phenyl]carbonyl}octa-hydro-1H-pyrrolo[2,3-c]pyridin-1-yl]pyridine-4-carbonitrile] | 0.0438 | 10
O=C(c1ccccc1-n1nccn1)N1CC[C@H]2CCN(c3cc(C(F)(F)F)ccn3)[C@H]2C1 [Example A20, (3aR, 7aR)-6-{[2-(2H-1,2,3-triazol-2-yl)phenyl]carbonyl}-1-[4-(trifluoromethyl)pyridin-2-yl]octahydro-1H-pyrrolo[2,3-c]pyridine] | 0.0665 | 3.96
N#Cc1ccnc(N2CC[C@@H]3CCN(C(=O)c4ncccc4-c4ccccc4)C[C@@H]32)c1 [Example E18, 2-{(3aR, 7aR)-6-[(3-phenylpyridin-2-yl)carbonyl]octahydro-1H-pyrrolo[2,3-c]pyridin-1-yl}pyridine-4-carbonitrile] | 0.0769 | ≥ 10
N#Cc1ccnc(N2CC[C@@H]3C[C@@H](CO)N(C(=O)c4ccccc4-n4nccn4)C[C@@H]32)c1 [Example G4] | 2.08 | 10
N#Cc1ccnc(N2CC[C@@H]3CCN(C(=O)c4ccccc4CC(F)F)C[C@@H]32)c1 [Example E8, 2-[(3aR, 7aR)-6-{[2-(2,2-difluoroethyl)phenyl]carbonyl}octahydro-1H-pyrrolo[2,3-c]pyridin-1-yl]pyridine-4-carbonitrile] | 0.512 | 10
COC(=O)c1csc(N2CC[C@@H]3CCN(C(=O)c4ccccc4-n4nccn4)C[C@@H]32)n1 [Example B11, methyl 2-((3aS, 7aR)-6-(2-(2H-1,2,3-triazol-2-yl)benzoyl)octahydro-1H-pyrrolo[2,3-c]pyridin-1-yl)thiazole-4-carboxylate] | 10 | 10
Cc1cnc(C)c(N2CC[C@@H]3CCN(C(=O)c4ccccc4-n4nccn4)C[C@@H]32)n1 [Example B22, (3aR, 7aR)-1-(3,6-dimethylpyrazin-2-yl)-6-{[2-(2H-1,2,3-triazol-2-yl)phenyl]carbonyl}octahydro-1H-pyrrolo[2,3-c]pyridine] | 5.91 | ≥ 10
N#Cc1ccnc(N2CC[C@H]3CCN(C(=O)c4nccnc4-n4cccn4)C[C@H]32)c1 (stereo in doubt) [Example D6, 2-((3aS, 7aS)-6-(3-(1H-pyrazol-1-yl)pyrazine-2-carbonyl)octahydro-1H-pyrrolo[2,3-c]pyridin-1-yl)isonicotinonitrile] | 0.117 | 10
N#Cc1ccnc(N2CC[C@H]3CCN(C(=O)c4nccnc4-c4ccccn4)C[C@H]32)c1 (stereo in doubt) [Example D4, 2-((3aS, 7aS)-6-(3-(pyridin-2-yl)pyrazine-2-carbonyl)octahydro-1H-pyrrolo[2,3-c]pyridin-1-yl)isonicotinonitrile] | 0.328 | ≥ 10
N#Cc1cc(Cl)ncc1N1CC[C@@H]2CCN(C(=O)c3ccccc3-n3nccn3)C[C@@H]21 [Example A14, 5-((3aR, 7aR)-6-(2-(2H-1,2,3-triazol-2-yl)benzoyl)octahydro-1H-pyrrolo[2,3-c]pyridin-1-yl)-2-chloroisonicotinonitrile] | ≥ 10 | ≥ 10
CN(C)c1cc(Cl)nc(N2CC[C@@H]3CCN(C(=O)c4ccccc4-n4nccn4)C[C@@H]32)n1 [Example A18, 6-chloro-N,N-dimethyl-2-[(3aR, 7aR)-6-{[2-(2H-1,2,3-triazol-2-yl)phenyl]carbonyl}octahydro-1H-pyrrolo[2,3-c]pyridin-1-yl]pyrimidin-4-amine] | 0.13 | 3.24
CCOc1ccccc1C(=O)N1CC[C@H]2CCN(c3cc(C#N)ccn3)[C@H]2C1 [Example E1, 2-((3aR,7aR)-6-(2-ethoxybenzol)octahydro-1H-pyrrolo[2,3-c]pyridin-1-yl)isonicotinonitrile] | 0.11 | 10
N#Cc1ccnc(N2CC[C@@H]3C[C@@H](CO)N(C(=O)c4ccccc4-n4nccn4)C[C@@H]32)c1 [Example G1, 2-((3aR,5S,7aR)-6-(2-(2H-1,2,3-triazol-2-yl)benzoyl)-5-(hydroxymethyl)octahydro-1H-pyrrolo[2,3-c]pyridin-1-yl)isonicotinonitrile] | 0.0082 | 2.75
N#Cc1ccnc(N2CC[C@@H]3CCN(C(=O)c4ccc(F)cc4-n4nccn4)C[C@@H]32)c1 [Example E4, 2-((3aR, 7aR)-6-(4-fluoro-2(2H-1,2,3-triazol-2-yl)benzoyl)octahydro-1H-pyrrolo[2,3-c]pyridin-1-yl)isonicotinonitrile] | 0.0627 | ≥ 10
O=C(c1ccccc1-n1nccn1)N1CC[C@H]2CCN(c3ccnc4ccccc34)[C@H]2C1 [Example B10, (2-(2H-1,2,3-triazol-2-yl)phenyl)((3aR, 7aR)-1-(quinolin-4-yl)hexahydro-1H-pyrrolo[2,3-c]pyridin-6(2H)-yl)methanone] | 3.43 | 10
O=C(c1ccccc1-n1nccn1)N1CC[C@H]2CCN(c3nccc4cccnc34)[C@H]2C1 [Example B16, ((3aR, 7aR)-1-(1,7-naphthyridin-8-yl)hexahydro-1H-pyrrolo[2,3-c]pyridin-6(2H)-yl)(2-(2H-1,2,3-triazol-2-yl)phenyl)methanone] | 0.75 | ≥ 10
CC(C)(O)c1ccnc(N2CC[C@@H]3CCN(C(=O)c4ccccc4-n4nccn4)C[C@@H]32)c1 [Example C5, 2-{2-[(3aR, 7aR)-6-{[2-(2H-1,2,3-triazol-2-yl)phenyl]carbonyl}octahydro-1H-pyrrolo[2,3-c]pyridin-1-yl]pyridin-4-yl}propan-2-ol] | 0.125 | 10
N#Cc1ccnc(N2CC[C@@H]3CCN(C(=O)c4cccnc4OCC(F)F)C[C@@H]32)c1 [Example D1, 2-((3aR,7aR)-6-(2-(2,2-difluoroethoxy)nicotinoyl)octahydro-1H-pyrrolo[2,3-c]pyridin-1-yl)isonicotinonitrile] | 0.147 | 10
